Source: US8530652B2, “Pyrrolopyrazoles, potent kinase inhibitors” (Agouron Pharmaceuticals, Inc., priority 2005, dated 2013)
Like-named read-outs stand apart in the source and are kept apart here.

Columns and labels:
[1] = molecular target: PAK4 kinase domain (PAK4 KD) (Homo sapiens (Human), UniProt O96013); assay: PAK4 kinase domain enzymatic assay (coupled PK/LDH, NADH absorbance at 340 nm); format: biochemical
[2] = molecular target: PAK4 kinase activity in whole cells (TR-293-KDG, modified HEK 293 overexpressing GEF-H1b and PAK4 KD) (Homo sapiens (Human), UniProt O96013); assay: PAK4 cellular assay: sandwich ELISA of PAK4-dependent phosphorylation of GEF-H1b in TR-293-KDG cells; format: cell-based; conditions: doxycycline-induced, 3-hour exposure, phospho-GEF-H1b ELISA
PAK4 kinase activity in whole cells (TR-293-KDG, modified HEK 293 overexpressing GEF-H1b and PAK4 KD), sequence (O96013 321-572): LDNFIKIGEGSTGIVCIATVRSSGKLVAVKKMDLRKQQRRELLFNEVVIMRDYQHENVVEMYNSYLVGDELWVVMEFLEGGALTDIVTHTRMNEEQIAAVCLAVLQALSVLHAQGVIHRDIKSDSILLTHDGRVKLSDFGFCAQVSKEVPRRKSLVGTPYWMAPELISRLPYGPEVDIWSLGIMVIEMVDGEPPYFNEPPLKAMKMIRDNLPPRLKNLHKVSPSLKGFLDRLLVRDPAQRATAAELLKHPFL
Excerpt: A sandwich ELISA method was used to measure the PAK4 kinase activity in whole cells. The level of PAK4-dependent phosphorylation of GEF-H1b can be determined by monitoring the binding of a phosphospecific antibody to GEF-H1b. A modified HEK 293 cell line is used in the bioassay and it has been engineered to overexpress both GEF-H1b and the kinase domain (KD) of PAK4. The KD of PAK4 is inducible in this cell line by tetracycline (Trex system, Invitrogen). The name of this cell line has been designated TR-293-KDG. To establish a phosphorylation event on GEF-H1, cells are induced with doxycycline to express the PAK4 KD. […] Candidate substance effect is measured as the ability to block this phosphorylation event.
ELISA plate was prepared by pre-coating the plates with a capture antibody (α-HA-tag mouse monoclonal antibody), blocked with BSA, and washed in 0.1% tween 20 in tris-buffered saline (TBST). Tissue culture plates (precoated with poly-D-lysine) were seeded with TR-293-KDG cells. The TR-293-KDG Cells were induced to express the PAK4 KD with doxycycline overnight and subsequently & concomitantly treated with candidate substances or diluent for an additional 3-hour, continuous exposure. Cells were then lysed with a modified RIPA buffer supplemented with protease inhibitors. The fresh whole cell lysates were then added to the ELISA plate for 2-hours. Between all subsequent steps plates were washed 4 times with TBST. Detection antibody (recognizing the phospho-specific eptitope on GEF-H1b) was added for 1 hour, followed by addition of an enzyme linked goat α-rabbit secondary antibody for 45 minutes. […] EC50 values were calculated by sigmoid curve fitting using a four-parameter analysis.

[3] = PAK4 kinase domain, 25 nM PAK4 KD, 0.04 mM ATP, pH 7.5

PAK4 kinase domain (PAK4 KD), sequence (O96013 321-572): as above

Structure (SMILES)	Ki [1, 3] [nM]	EC50 [2] [nM]	Ki [1] [nM]
CN(C)C[C@@H](OC(=O)N1Cc2c(Nc3ccnc(C#N)n3)n[nH]c2C1(C)C)c1ccccc1 [Example 70, (1S)-2-(dimethylamino)-1-phenylethyl 3-[(2-cyanopyrimidin-4-yl)amino]-6,6-dimethyl-4,6-dihydropyrrolo [3,4-c]pyrazole-5(1H)-carboxylate]	8.8	1.9	–
Cc1nc(Nc2n[nH]c3c2CN(C(=O)N[C@H](CN(C)C)c2ccccc2)C3(C)C)c2ccsc2n1 [Example 58, N-[(1S)-2-(dimethylamino)-1-phenylethyl]-6,6-dimethyl-3-[(2-methylthieno[2,3-d]pyrimidin-4-yl)amino]-4,6-dihydropyrrolo[3,4-c]pyrazole-5(1H)-carboxamide]	–	2.5	14
CN(C)C[C@@H](OC(=O)N1Cc2c(Nc3nc(C#N)nc4ccccc34)n[nH]c2C1(C)C)c1ccccc1 [Example 74, (1S)-2-(dimethylamino)-1-phenylethyl 3-[(2-cyanoquinazolin-4-yl)amino]-6,6-dimethyl-4,6-dihydropyrrolo[3,4-c]pyrazole-5(1H)-carboxylate]	3.6	< 3.9	–
Cc1nc(Nc2n[nH]c3c2CN(C(=O)N[C@H]2C[C@@H]2c2ccccc2)C3(C)C)c2sccc2n1 (relative stereo) [Example 41, 6,6-dimethyl-3-[(2-methylthieno[3,2-d]pyrimidin-4-yl)amino]-N-[trans-2-phenylcyclopropyl]-4,6-dihydropyrrolo[3,4-c]pyrazole-5(1H)-carboxamide]	24	147	–
Cc1nc(Nc2n[nH]c3c2CN(C(=O)N[C@@H]2C[C@H]2c2ccccc2)C3(C)C)c2sccc2n1 [Example 32, 6,6-Dimethyl-3-[(2-methylthieno[3,2-d]pyrimidin-4-yl)amino]-N-[(1R,2S)-2-phenylcyclopropyl]-4,6-dihydropyrrolo[3,4-c]pyrazole-5(1H)-carboxamide]	3.5	19	–
CCOc1ncc(F)c(Nc2n[nH]c3c2CN(C(=O)O[C@H](CN(C)C)c2ccccc2)C3(C)C)n1 [Example 72, (1S)-2-(dimethylamino)-1-phenylethyl 3-[(2-ethoxy-5-fluoropyrimidin-4-yl)amino]-6,6-dimethyl-4,6-dihydro-pyrrolo[3,4-c]pyrazole-5(1H)-carboxylate]	16	4.4	–
CN(C)C[C@@H](NC(=O)N1Cc2c(Nc3nc(C#N)nc4ccccc34)n[nH]c2C1(C)C)c1ccccc1 [Example 64, 3-[(2-cyanoquinazolin-4-yl)amino]-N-[(1S)-2-(dimethylamino)-1-phenylethyl]-6,6-dimethyl-4,6-dihydropyrrolo[3,4-c]pyrazole-5(1H)-carboxamide]	3	< 3.9	–
CCOc1ncc(F)c(Nc2n[nH]c3c2CN(C(=O)N[C@H](CN(C)C)c2ccccc2)C3(C)C)n1 [Example 59, N-[(1S)-2-(dimethylamino)-1-phenylethyl]-3-[(2-ethoxy-5-fluoropyrimidin-4-yl)amino]-6,6-dimethyl-4,6-dihydropyrrolo[3,4-c]pyrazole-5(1H)-carboxamide]	170	2.4	–
COc1nc(Nc2n[nH]c3c2CN(C(=O)NC2CC2c2ccccc2)C3(C)C)nc(N2CCC[C@H]2C#N)n1 (stereo in doubt) [Example 20, 3-({4-[(2S)-2-cyanopyrrolidin-1-yl]-6-methoxy-1,3,5-triazin-2-yl}amino)-6,6-dimethyl-N-[trans-2-phenylcyclopropyl]-4,6-dihydropyrrolo[3,4-c]pyrazole-5(1H)-carboxamide]	–	1200	90
Cc1ncnc(Nc2n[nH]c3c2CN(C(=O)N[C@H](CN(C)C)c2ccccc2)C3(C)C)c1F [Example 56, N-[(1S)-2-(dimethylamino)-1-phenylethyl]-3-[(5-fluoro-6-methylpyrimidin-4-yl)amino]-6,6-dimethyl-4,6-dihydropyrrolo[3,4-c]pyrazole-5(1H)-carboxamide]	240	570	–

The next lines start with the values.

Ki [1, 3] [nM]	EC50 [2] [nM]	Ki [1] [nM]	Structure (SMILES)
25	32	–	CC1(C)c2[nH]nc(Nc3nc(C(F)(F)F)nc4ccsc34)c2CN1C(=O)N[C@@H]1C[C@H]1c1ccccc1 (relative stereo) [Example 45, 6,6-dimethyl-N-[trans-2-phenylcyclopropyl]-3-{[2-(trifluoromethyl)thieno[3,2-d]pyrimidin-4-yl]amino}-4,6-dihydropyrrolo[3,4-c]pyrazole-5(1H)-carboxamide]
96	1470	–	Cc1nc(Nc2n[nH]c3c2CN(C(=O)N[C@@H]2C[C@H]2c2ccccc2)C3(C)C)cc(N(C)C)n1 (relative stereo) [Example 38, 3-{[6-(dimethylamino)-2-methylpyrimidin-4-yl]amino}-6,6-dimethyl-N-[trans-2-phenylcyclopropyl]-4,6-dihydropyrrolo[3,4-c]pyrazole-5(1H)-carboxamide]
22	19	–	CN(C)C[C@@H](NC(=O)N1Cc2c(Nc3ncnc4sccc34)n[nH]c2C1(C)C)c1ccccc1 [Example 61, N-[(1S)-2-(dimethylamino)-1-phenylethyl]-6,6-dimethyl-3-(thieno[2,3-d]pyrimidin-4-ylamino)-4,6-dihydropyrrolo[3,4-c]pyrazole-5(1H)-carboxamide]
120	> 4000	–	COc1nc(Cl)nc(Nc2n[nH]c3c2CN(C(=O)N[C@@H]2C[C@H]2c2ccccc2)C3(C)C)n1 (relative stereo) [Example 10, 3-[(4-chloro-6-methoxy-1,3,5-triazin-2-yl)amino]-6,6-dimethyl-N-[trans-2-phenylcyclopropyl]-4,6-dihydropyrrolo[3,4-c]pyrazole-5(1H)-carboxamide]
18	31	–	CC1(C)c2[nH]nc(Nc3ncnc4ccsc34)c2CN1C(=O)N[C@@H]1C[C@H]1c1ccccc1 [Example 51, 6,6-dimethyl-N-[(1R,2S)-2-phenylcyclopropyl]-3-(thieno[3,2-d]pyrimidin-4-ylamino)-4,6-dihydropyrrolo[3,4-c]pyrazole-5(1H)-carboxamide]
21	778	–	Cc1nc(Nc2n[nH]c3c2CN(C(=O)N[C@@H]2C[C@H]2c2ccccc2)C3(C)C)cc(N2CCOCC2)n1 (relative stereo) [Example 34, 6,6-dimethyl-3-[(2-methyl-6-morpholin-4-ylpyrimidin-4-yl)amino]-N-[trans-2-phenylcyclopropyl]-4,6-dihydropyrrolo[3,4-c]pyrazole-5(1H)-carboxamide]
270	> 4000	–	CC1(C)c2[nH]nc(Nc3nc(Cl)nc(Cl)n3)c2CN1C(=O)N[C@@H]1C[C@H]1c1ccccc1 (relative stereo) [Example 9, 3-[(4,6-dichloro-1,3,5-triazin-2-yl)amino]-6,6-dimethyl-N-[trans-2-phenylcyclopropyl]-4,6-dihydropyrrolo[3,4-c] pyrazole-5(1H)-carboxamide]
67	1740	–	CC1(C)c2[nH]nc(Nc3ncnc4ccoc34)c2CN1C(=O)N[C@H]1C[C@@H]1c1ccccc1 (relative stereo) [Example 53, 3-(furo[3,2-d]pyrimidin-4-ylamino)-6,6-dimethyl-N-(trans-2-phenylcyclopropyl)-4,6-dihydropyrrolo[3,4-c]pyrazole-5(1H)-carboxamide]
260	262	–	Cc1cc2c(Nc3n[nH]c4c3CN(C(=O)N[C@@H]3C[C@H]3c3ccccc3)C4(C)C)ncnc2s1 (relative stereo) [Example 35, 6,6-dimethyl-3-[(6-methylthieno[2,3-d]pyrimidin-4-yl)amino]-N-[trans-2-phenylcyclopropyl]-4,6-dihydropyrrolo[3,4-c]pyrazole-5(1H)-carboxamide]
